The values below are quoted from earlier work in patent US20030064909A1, “Laundry detergent and/or fabric care compositions comprising a transferase” (The Procter & Gamble Company, priority 1998, published 2003).

Each structure is given as a SMILES string.

Take `O=[N+]([O-])C(Br)(CO)CO` [Bronopol, 2-bromo-2-nitropropane-1,3-diol]: the solubility in water result is listed as “about 25%”.

As for `O=[N+]([O-])C1(Br)COCOC1` [Bronidox L, 5-bromo-5-nitro-1,3-dioxane], the solubility in water result is “about 0.46%”.

Consider `CC(C)(O)C(Cl)(Cl)Cl` [chlorobutanol, 1,1,1-Trichloro-2-methylpropan-2-ol, reference compound], for which the solubility in water result is reported as “about 0.8%”. For `[H]/N=C(\N/C(=N/[H])NCCCCCCNC(=N)NC(=N)Nc1ccc(Cl)cc1)Nc1ccc(Cl)cc1` [chlorhexidine diacetate, 1,1′-hexamethylene bis(5-(p-chlorophenyl)biguanide), reference compound], the solubility in water result is on record as “about 1.8%”. Turning to `ClC=CC[N+]12CN3CN(CN(C3)C1)C2.[Cl-]` [Dowicil 200, 1-(3-Chlorallyl) -3,5,7-triaza-1-azoniaadamantane chloride], the “solubility in water” value was “freely soluble in water”. For the compound `OCc1ccccc1` [benzyl alcohol], the solubility in water result is given as “about 4%”. Take `OCCOc1ccccc1` [2-phenoxyethanol]: the solubility in water result was “about 2.67%”.

Take `[Na+].[O-][n+]1ccccc1[S-]` [sodium pyrithione]: the solubility in water result is recorded as “about 50%”.

Regarding `OCCc1ccccc1` [2-phenylethanol], the solubility in water entry was “about 2%”. Regarding `CC1(C)C(=O)N(CO)C(=O)N1CO` [DMDM hydantoin, 1,3-bis(hydroxymethyl)-5,5-dimethyl-2,4-imidazolidinedione], the solubility in water result is “more than 50%”. As for `[H]/N=C(\N/C(=N/[H])NCCCCCCNC(=N)NC(=N)Nc1ccc(Cl)cc1)Nc1ccc(Cl)cc1` [chlorhexidine digluconate, 1,1′-hexamethylene bis(5-(p-chlorophenyl)biguanide), reference compound], the solubility in water result is reported as “about 70%”.
